From paper doi:10.1101/2025.10.30.685675v2 (biorxiv, 2026)

Target: T1, HsDLH (Homo sapiens, UniProt Q96DG6)
T1 construct: gene CMBL; N-terminal His6-Twin-Strep-SUMO tag kept, E. coli BL21(DE3), Ni-NTA
T1 sequence (Q96DG6 1-245): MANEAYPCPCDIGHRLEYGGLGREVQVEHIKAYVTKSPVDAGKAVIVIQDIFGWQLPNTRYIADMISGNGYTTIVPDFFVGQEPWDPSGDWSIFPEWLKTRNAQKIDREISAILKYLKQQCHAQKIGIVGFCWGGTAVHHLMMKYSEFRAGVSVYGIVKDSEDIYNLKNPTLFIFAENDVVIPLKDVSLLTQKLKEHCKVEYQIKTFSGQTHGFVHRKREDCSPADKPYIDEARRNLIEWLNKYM
Type: biochemical

Question: Which KM does the source give for `CCOP(=O)(OCC)Oc1ccc2c(c1)Oc1cc(OP(=O)(OCC)OCC)ccc1C21OC(=O)c2ccccc21` [FDDEP] here?
Answer: displays very weak activity towards the fluorogenic phosphotriester FDDEP
